Measurements from patent US12448383B2, “Compounds and methods for treatment of viral infections” (priority 2022, dated 2025).

Experiments:
[1] = tested on: SARS Coronavirus 2 recombinant with NanoLuc (SARS-CoV2-NLuc) in A549-hACE2 cells; experiment: organism not typed; type: cell-based
[2] = CC50 MT4 cytotoxicity (Cell-Titer Glo); type: cell-based; settings: human
How it was run: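 Uninfected MT-4 and HEp-2 cells cultured 4-5 days at 37° C with 3-fold serially diluted compound (15 nM to 100,000 nM). Viability read by Cell-Titer Glo luminescence; untreated and 2 μM puromycin wells set 100% and 0%. CC50 from non-linear regression as concentration reducing viability by 50%.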

Plasma stability = type: in vitro ADME; set-up: unit not given here; settings: 37° C., 2 μM substrate
How it was run: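 Reaction mixture was sampled at 0.05, 0.5, 1, 2, 3 and 4 hr into quench solution containing internal standard, then centrifuged and diluted with water. Remaining analyte was measured by LC-MS on a Q-Exactive using a formic acid/acetonitrile gradient, with 5 ppm mass tolerance.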

[3] = tested on: Caco-2 cells (clone C2BBe1); experiment: CACO-2 permeability; type: in vitro ADME; set-up: unit not given here; settings: for DM Caco2 A to B: apical to basolateral, donor pH 6.5, receiver pH 7.4; for DM Caco2 B to A: basolateral to apical
How it was run: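 Caco-2 monolayers grown 21 days on collagen-coated transwells and checked for integrity by TEER. Donor buffer was HBSS/HEPES/glucose pH 6.5 with 200 μM BNPP; receiver was pH 7.4 with BSA. Compounds were dosed apically or basolaterally for A-to-B and B-to-A transport, with receiver sampling at 1 and 2 h, LC-MS/MS analysis and percent recovery.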

[4] = Thermodynamic solubility in pH7 buffered solution; settings: 50 mM phosphate buffer pH7, 150 mM NaCl, ambient temperature, 24 hours
How it was run: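 Solid shaken 24 h at ambient temperature in 50 mM phosphate buffer pH7 with 150 mM NaCl. Supernatant diluted in 30:70 acetonitrile:water and quantified by UPLC-UV.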

[5] = Stability in pH2 buffered solution; type: physicochemical; settings: pH2 phosphate buffer, 40° C.; for pH 2 Stability 24 h % AN: Table N2
How it was run: (§1)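 Compounds diluted from 1 mg/mL acetonitrile stock to 50 μg/mL in 50 mM phosphate buffer with 150 mM NaCl at pH2 or pH7, held at 40° C. for 24 hrs. UPLC sampling at 0, 3, 6, 9, 12 hrs, plus 24 hrs from oven-stored duplicate; reported as % area normalized of compound peak.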

[6] = Stability in pH7 buffered solution; type: physicochemical; settings: pH7 phosphate buffer, 40° C., Table N2
How it was run: as §1

SMILES	EC50 ([1]; 48 h, read-out: SARS-CoV2 EC50)	CC50 [2]	STA Human Plasma 37 (Plasma stability)	DM Caco2 A to B [3]	DM Caco2 B to A [3]	Sol pH 7 [4]	Stability at pH2, 0 hr [5]	Stability at pH2, 3 hr [5]	Stability at pH2, 6 hr [5]	Stability at pH2, 9 hr [5]	Stability at pH2, 12 hr [5]	pH 2 Stability 24 h % AN [5]	Stability at pH2, 24 hr [5]	pH 7 Stability 24 h % AN [6]	EC50 ([1]; A549, read-out: EC50 SARS CoV2 NanoLuc A549 384)
COC(=O)OC[C@H]1O[C@@](C#N)(c2ccc3c(N)ncnn23)[C@H](OC(C)=O)[C@@H]1OC(C)=O [Compound 128, (2R,3R,4R,5R)-2-(4-aminopyrrolo[2,1-f][1,2,4]triazin-7-yl)-2-cyano-5-(((methoxycarbonyl)oxy)methyl)tetrahydrofuran-3,4-diyl diacetate]	7.23 µM	> 50 µM	9.735	3.35	5.69	1.42	100.0 % AN	98.3 % AN	96.7 % AN	95.2 % AN	93.8 % AN	89 % AN	89.3 % AN	78 % AN	–
CCOC(=O)OC[C@H]1O[C@@](C#N)(c2ccc3c(N)ncnn23)[C@H](OC(C)=O)[C@@H]1OC(C)=O [Compound 129, (2R,3R,4R,5R)-2-(4-aminopyrrolo[2,1-f][1,2,4]triazin-7-yl)-2-cyano-5-(((ethoxycarbonyl)oxy)methyl)tetrahydrofuran-3,4-diyl diacetate]	5.83 µM	> 50 µM	3	3.505	6.635	0.72	100.0 % AN	98.4 % AN	96.9 % AN	95.5 % AN	94.0 % AN	89 % AN	89.4 % AN	78 % AN	–
CC(C)OC(=O)Nc1ncnn2c([C@]3(C#N)O[C@H](COC(=O)OC(C)C)[C@@H](O)[C@H]3O)ccc12 [Compound 137, isopropyl (7-((2R,3R,4S,5R)-2-cyano-3,4-dihydroxy-5-(((isopropoxycarbonyl)oxy)methyl)tetrahydrofuran-2-yl)pyrrolo[2, i-f][1,2,4]triazin-4-yl)carbamate]	–	> 50 µM	676.3	0.98	11.37	0.13	–	–	–	–	–	80 % AN	–	97 % AN	> 50 µM
